Measurements as given in PubChem BioAssay (NCI).
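Protocol summary: plate cells (96-well), add compound at 5 concentrations, incubate 48 h, interpolate endpoints linearly. Definition used: TGI = concentration required for complete inhibition of growth.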

Assays:
Assay in all cases: NCI anticancer screen, dose series, 48 h
[1] = tested on: 786-0 renal
[2] = tested on: A498 renal
[3] = tested on: A549 NSCLC
[4] = tested on: ACHN renal
[5] = tested on: CCRF-CEM leukemia
[6] = tested on: COLO 205 colon
[7] = tested on: DLD-1 colon
[8] = tested on: DMS 114 small cell lung
[9] = tested on: EKVX NSCLC
[10] = tested on: HCC-2998 colon
[11] = tested on: HCT-116 colon
[12] = tested on: HCT-15 colon
[13] = tested on: HL-60(TB) leukemia
[14] = tested on: HOP-18 NSCLC
[15] = tested on: HOP-62 NSCLC
[16] = tested on: HT29 colon
[17] = tested on: K-562 leukemia
[18] = tested on: KM12 colon
[19] = tested on: KM20L2 colon
[20] = tested on: LOX IMVI melanoma
[21] = tested on: LXFL 529 NSCLC
[22] = tested on: M14 melanoma
[23] = tested on: M19-MEL melanoma
[24] = tested on: MALME-3M melanoma
[25] = tested on: MOLT-4 leukemia
[26] = tested on: NCI-H226 lung
[27] = tested on: NCI-H23 lung
[28] = tested on: NCI-H460 lung
[29] = tested on: NCI-H522 lung
[30] = tested on: OVCAR-3 ovarian
[31] = tested on: OVCAR-4 ovarian
[32] = tested on: OVCAR-5 ovarian
[33] = tested on: OVCAR-8 ovarian
[34] = tested on: RPMI-8226 leukemia
[35] = tested on: RXF 393 renal
[36] = tested on: SF-268 CNS
[37] = tested on: SF-295 CNS
[38] = tested on: SF-539 CNS
[39] = tested on: SK-MEL-2 melanoma
[40] = tested on: SK-MEL-28 melanoma
[41] = tested on: SK-OV-3 ovarian
[42] = tested on: SN12C renal
[43] = tested on: SNB-19 CNS
[44] = tested on: SNB-75 CNS
[45] = tested on: SNB-78 CNS
[46] = tested on: TK-10 renal
[47] = tested on: U251 CNS
[48] = tested on: UACC-257 melanoma
[49] = tested on: UACC-62 melanoma
[50] = tested on: UO-31 renal
[51] = tested on: XF 498 CNS
[52] = tested on: CAKI-1 renal
[53] = tested on: DMS 273 small cell lung
[54] = tested on: HOP-92 NSCLC
[55] = tested on: IGROV1 ovarian
[56] = tested on: SK-MEL-5 melanoma
[57] = tested on: SR leukemia
[58] = tested on: SW-620 colon

Measured: TGI

O=C(CC1(O)C(=O)Nc2ccc([N+](=O)[O-])cc21)c1ccc(Br)cc1 (centres undefined)
76.7 µM: [44]
69 µM: [23]
51 µM: [47]
45.7 µM: [13]
50.3 µM: [2]
71.1 µM: [35]
69.5 µM: [46]
47.9 µM: [29]
not listed: [52] | [53] | [54] | [55] | [56] | [57] | [58]
> 100 µM: all other assays above

O=P(Nc1cccc(Cl)c1)(Oc1ccccc1)N(CCCl)CCCl (centres undefined)
31.5 µM: [52]
28.5 µM: [24]
26.7 µM: [19]
29.3 µM: [6]
25.8 µM: [11]
32.8 µM: [23]
28.7 µM: [12]
30.6 µM: [46]
24.6 µM: [21]
29.2 µM: [3]
28.8 µM: [32]
25.3 µM: [56]
28.4 µM: [16]
31.1 µM: [15]
28.1 µM: [37]
25.6 µM: [39]
27.2 µM: [48]
24.7 µM: [54]
31.2 µM: [38]
> 100 µM: [5] | [13] | [17] | [25] | [29] | [41] | [57] | [50]
29.6 µM: [26]
47.3 µM: [4]
30.4 µM: [55] | [44]
30.5 µM: [7] | [40]
47.2 µM: [14]
26.1 µM: [8]
30.7 µM: [58]
33.9 µM: [9]
29.1 µM: [42]
35.7 µM: [30]
28.6 µM: [10] | [18] | [22]
37.9 µM: [33]
27.6 µM: [2]
24.4 µM: [49]
31.8 µM: [27]
43.8 µM: [45]
28.3 µM: [47]
25.4 µM: [31]
27.3 µM: [53]
31.4 µM: [36]

CC(=O)Nc1ccc(C(=O)n2[nH]c(C)c(/C=C3\C(=O)C=Cc4ccccc43)c2=O)cc1
95.3 µM: [39]
59.3 µM: [24]
not listed: [2] | [19] | [21] | [35] | [41] | [46] | [47] | [49] | [54] | [55]
> 100 µM: all other assays above

CCCCc1c2c(nc3c1CCCC3=O)CCCC2
98.4 µM: [24]
65.6 µM: [26]
not listed: [2] | [7] | [14] | [31] | [32] | [35] | [39] | [44] | [45] | [46] | [48] | [49] | [52] | [54]
> 100 µM: all other assays above
